Measured values published in patent US4900757A, “Hypocholesterolemic and antiatherosclerotic uses of bix(3,5-di-tertiary-butyl-4-hydroxyphenylthio)methane” (Merrell Dow Pharmaceuticals Inc., priority 1988, dated 1990).

What was measured:
mice = conditions: cited from earlier work
human LDL = experiment: Inhibition of LDL peroxidation (cupric sulfate, thiobarbituric acid assay; Example 3); conditions: ratio of ID50, in words
[1] = system: Watanabe heritable hyperlipidemic (WHHL) rabbit; experiment: Antiatherosclerotic and hypocholesterolemic effects in the Watanabe Heritable Hyperlipidemic rabbit (Example 2); type: in vivo; conditions: for Aortic Lesions, as a percent of control group / HDL Protein, as a percent of control group / LDL Cholesterol, as a percent of control group / Plasma Cholesterol, as a percent of control group: mean vs respective control group
From the text: Divide Watanabe Heritable Hyperlipidemic rabbits (WHHL), 13 to 15 weeks of age, into two treatment groups of 4 to 5 rabbits each. To one treatment group feed standard rabbit chow [Control Group], and to the other group feed standard rabbit chow containing the test compound (1% by weight) [Treatment Group]. In one experiment, probucol is the active treatment [Treatment Group A]. In another experiment, bis(3,5-di-tertiarybutyl-4-hydroxyphenylthio)methane is the active treatment [Treatment Group B].
After 12 weeks of treatment, sacrifice the study animals and take plasma and aorta samples. Determine for each study animal the extent of the atherosclerotic lesions of the aorta by the method of Badimon et al. [Atherosclerosis 61, 57 (1986)]. Determine for each study animal plasma cholesterol concentrations by an enzymatic method using a DACOS analyzer (Coulter Electronics Inc., Hialeah, Florida, USA). Isolate plasma lipoproteins by sequential ultracentrifugation and determine LDL and HDL cholesterol and protein by the method of Mao et al. [Biochemistry 14, 4127 (1975)].

LDL [2] = conditions: in vitro; in words; cited from earlier work
LDL [3] = conditions: in words; cited from earlier work
WHHL rabbit = conditions: in words; cited from earlier work
[4] = 1% (w/w) in feed, 12 weeks, in words

Compound | reduction in the blood cholesterol of mice, in words (mice; comparable treatment (to 2 weeks probucol)) | effectiveness in inhibiting peroxidation of human LDL relative to probucol (human LDL) | Aortic Lesions, as a percent of control group ([1]; 1% (w/w) in feed, 12 weeks) [%] | HDL Protein, as a percent of control group ([1]; 1% (w/w) in feed, 12 weeks) | LDL Cholesterol, as a percent of control group ([1]; 1% (w/w) in feed, 12 weeks) [%] | Plasma Cholesterol, as a percent of control group ([1]; 1% (w/w) in feed, 12 weeks) [%] | amount of HDL in the blood, as measured by HDL protein [1, 4] | reduction of LDL cholesterol compared with probucol [1, 4] | reduction of aortic lesions compared with probucol [1, 4] | reduction of plasma cholesterol compared with probucol [1, 4] | progression of atherosclerosis in the WHHL rabbit ([1]; in words) | serum cholesterol in the WHHL rabbit ([1]; in words) | reduction in the blood cholesterol of mice (mice; 2 week treatment) [%] | inhibition of oxidative modification of LDL by cupric ions (LDL [2]) | inhibition of oxidative modification of LDL by endothelial cells (LDL [3]) | preventing the progression of atherosclerosis in WHHL rabbit (WHHL rabbit)
CC(C)(C)c1cc(SCSc2cc(C(C)(C)C)c(O)c(C(C)(C)C)c2)cc(C(C)(C)C)c1O | no reduction | over twice as effective | -38 | +8% | -35 | -20 | increased | to a greater extent than probucol | to a greater extent than probucol | to a greater extent than probucol | prevents the progression of atherosclerosis | reduces serum cholesterol |  |  |  | 
CC(C)(Sc1cc(C(C)(C)C)c(O)c(C(C)(C)C)c1)Sc1cc(C(C)(C)C)c(O)c(C(C)(C)C)c1 [Probucol, 2,2'-bis(3,5-di-tertiary-butyl-4-hydroxyphenylthio)propane, reference compound] |  |  | -33 | -21% | -15 | -12 | decreased |  |  |  |  |  | 59 | inhibits the oxidative modification of LDL | inhibits the oxidative modification of LDL | effective in preventing the progression of atherosclerosis
